The target in data set [1] is T1, ATR kinase (full-length ATR) (Homo sapiens, UniProt Q13535).
T1 construct: Assays were carried out at 25° C. in the presence of 5 nM full-length ATR
Description: ATR Inhibition Assay (radioactive-phosphate incorporation). Type of data set: biochemical. The settings on record: Ki(app); 10 μM ATP, 800 μM target peptide, 5 nM full-length ATR, 25° C. Here is the method: Compounds were screened for their ability to inhibit ATR kinase using a radioactive-phosphate incorporation assay. Assays were carried out in a mixture of 50 mM Tris/HCl (pH 7.5), 10 mM MgCl2 and 1 mM DTT. Final substrate concentrations were 10 μM [γ-33P]ATP (3mCi 33P ATP/mmol ATP, Perkin Elmer) and 800 μM target peptide (ASELPASQPQPFSAKKK).
Assays were carried out at 25° C. in the presence of 5 nM full-length ATR. An assay stock buffer solution was prepared containing all of the reagents listed above, with the exception of ATP and the test compound of interest. 13.5 μL of the stock solution was placed in a 96 well plate followed by addition of 2 μL of DMSO stock containing serial dilutions of the test compound (typically starting from a final concentration of 15 μM with 3-fold serial dilutions) in duplicate (final DMSO concentration 7%). The plate was pre-incubated for 10 minutes at 25° C. and the reaction initiated by addition of 15 μL [γ-33P]ATP (final concentration 10 μM).
The reaction was stopped after […] by the addition of 30 μL 0.1M phosphoric acid containing 2 mM ATP. A multiscreen phosphocellulose filter 96-well plate (Millipore, Cat no. MAPHN0B50) was pretreated with 100 μL 0.2M phosphoric acid prior to the addition of 45 μL of the stopped assay mixture. The plate was washed with 5×200 μL 0.2M phosphoric acid. After drying, 100 μL Optiphase ‘SuperMix’ liquid scintillation cocktail (Perkin Elmer) was added to the well prior to scintillation counting (1450 Microbeta Liquid Scintillation Counter, Wallac).
After removing mean background values for all of the data points, Ki(app) data were calculated from non-linear regression analysis of the initial rate data using the Prism software package (GraphPad Prism version 3.0cx for Macintosh, GraphPad Software, San Diego Calif., USA).

The nature of data set [2]: Pharmacokinetics (clearance and volume of distribution). The class given is in vivo. The settings on record: for clearance / Vd: in vivo, noncompartmental, intravenous (IV) dosing, species not given; for Vd: read-out: Vss (steady state volume of distribution). From the text:
Noncompartmental pharmacokinetic parameters can be analyzed using Watson Bioanalytical LIMS (Version 7.4; Thermo Fisher Scientific) from either the blood or plasma samples. The following parameters can be estimated following intravenous (IV) dosing: terminal elimination half-life (T1/2=ln(2)/λz, where λz is the first order rate constant associated with the terminal (log-linear) portion of the curve); the area under the curve (AUClast=area under the curve from the time of dosing to the last measurable concentration); the area under the curve extrapolated to infinity (AUC0-∞=AUClast+Clast/λz). The clearance (Cl; Cl=DoseIV/AUC0-∞); the area under the first moment curve (AUMClast=area under the concentration times time versus time curve from the time of dosing to the last measurable concentration); the area under the first moment curve extrapolated to infinity (AUMC0-∞=AUMClast+Clast×t/λz+Clast/λz^2); the mean residence time (MRT=AUMC0-∞/AUC0-∞); and the steady state volume of distribution (Vdss=MRT×Cl).
Clearance and volume of distribution can also be obtained using methods known to one of skill in the art (see e.g., Handbook of Essential Pharmacokinetics, Pharmacodynamics and Drug Metabolism for Industrial Scientists, Younggil Kwon, pp 18-28 (Noncompartmental Approach)).

Each structure is given as a SMILES string.

T1 sequence (Q13535 whole entry): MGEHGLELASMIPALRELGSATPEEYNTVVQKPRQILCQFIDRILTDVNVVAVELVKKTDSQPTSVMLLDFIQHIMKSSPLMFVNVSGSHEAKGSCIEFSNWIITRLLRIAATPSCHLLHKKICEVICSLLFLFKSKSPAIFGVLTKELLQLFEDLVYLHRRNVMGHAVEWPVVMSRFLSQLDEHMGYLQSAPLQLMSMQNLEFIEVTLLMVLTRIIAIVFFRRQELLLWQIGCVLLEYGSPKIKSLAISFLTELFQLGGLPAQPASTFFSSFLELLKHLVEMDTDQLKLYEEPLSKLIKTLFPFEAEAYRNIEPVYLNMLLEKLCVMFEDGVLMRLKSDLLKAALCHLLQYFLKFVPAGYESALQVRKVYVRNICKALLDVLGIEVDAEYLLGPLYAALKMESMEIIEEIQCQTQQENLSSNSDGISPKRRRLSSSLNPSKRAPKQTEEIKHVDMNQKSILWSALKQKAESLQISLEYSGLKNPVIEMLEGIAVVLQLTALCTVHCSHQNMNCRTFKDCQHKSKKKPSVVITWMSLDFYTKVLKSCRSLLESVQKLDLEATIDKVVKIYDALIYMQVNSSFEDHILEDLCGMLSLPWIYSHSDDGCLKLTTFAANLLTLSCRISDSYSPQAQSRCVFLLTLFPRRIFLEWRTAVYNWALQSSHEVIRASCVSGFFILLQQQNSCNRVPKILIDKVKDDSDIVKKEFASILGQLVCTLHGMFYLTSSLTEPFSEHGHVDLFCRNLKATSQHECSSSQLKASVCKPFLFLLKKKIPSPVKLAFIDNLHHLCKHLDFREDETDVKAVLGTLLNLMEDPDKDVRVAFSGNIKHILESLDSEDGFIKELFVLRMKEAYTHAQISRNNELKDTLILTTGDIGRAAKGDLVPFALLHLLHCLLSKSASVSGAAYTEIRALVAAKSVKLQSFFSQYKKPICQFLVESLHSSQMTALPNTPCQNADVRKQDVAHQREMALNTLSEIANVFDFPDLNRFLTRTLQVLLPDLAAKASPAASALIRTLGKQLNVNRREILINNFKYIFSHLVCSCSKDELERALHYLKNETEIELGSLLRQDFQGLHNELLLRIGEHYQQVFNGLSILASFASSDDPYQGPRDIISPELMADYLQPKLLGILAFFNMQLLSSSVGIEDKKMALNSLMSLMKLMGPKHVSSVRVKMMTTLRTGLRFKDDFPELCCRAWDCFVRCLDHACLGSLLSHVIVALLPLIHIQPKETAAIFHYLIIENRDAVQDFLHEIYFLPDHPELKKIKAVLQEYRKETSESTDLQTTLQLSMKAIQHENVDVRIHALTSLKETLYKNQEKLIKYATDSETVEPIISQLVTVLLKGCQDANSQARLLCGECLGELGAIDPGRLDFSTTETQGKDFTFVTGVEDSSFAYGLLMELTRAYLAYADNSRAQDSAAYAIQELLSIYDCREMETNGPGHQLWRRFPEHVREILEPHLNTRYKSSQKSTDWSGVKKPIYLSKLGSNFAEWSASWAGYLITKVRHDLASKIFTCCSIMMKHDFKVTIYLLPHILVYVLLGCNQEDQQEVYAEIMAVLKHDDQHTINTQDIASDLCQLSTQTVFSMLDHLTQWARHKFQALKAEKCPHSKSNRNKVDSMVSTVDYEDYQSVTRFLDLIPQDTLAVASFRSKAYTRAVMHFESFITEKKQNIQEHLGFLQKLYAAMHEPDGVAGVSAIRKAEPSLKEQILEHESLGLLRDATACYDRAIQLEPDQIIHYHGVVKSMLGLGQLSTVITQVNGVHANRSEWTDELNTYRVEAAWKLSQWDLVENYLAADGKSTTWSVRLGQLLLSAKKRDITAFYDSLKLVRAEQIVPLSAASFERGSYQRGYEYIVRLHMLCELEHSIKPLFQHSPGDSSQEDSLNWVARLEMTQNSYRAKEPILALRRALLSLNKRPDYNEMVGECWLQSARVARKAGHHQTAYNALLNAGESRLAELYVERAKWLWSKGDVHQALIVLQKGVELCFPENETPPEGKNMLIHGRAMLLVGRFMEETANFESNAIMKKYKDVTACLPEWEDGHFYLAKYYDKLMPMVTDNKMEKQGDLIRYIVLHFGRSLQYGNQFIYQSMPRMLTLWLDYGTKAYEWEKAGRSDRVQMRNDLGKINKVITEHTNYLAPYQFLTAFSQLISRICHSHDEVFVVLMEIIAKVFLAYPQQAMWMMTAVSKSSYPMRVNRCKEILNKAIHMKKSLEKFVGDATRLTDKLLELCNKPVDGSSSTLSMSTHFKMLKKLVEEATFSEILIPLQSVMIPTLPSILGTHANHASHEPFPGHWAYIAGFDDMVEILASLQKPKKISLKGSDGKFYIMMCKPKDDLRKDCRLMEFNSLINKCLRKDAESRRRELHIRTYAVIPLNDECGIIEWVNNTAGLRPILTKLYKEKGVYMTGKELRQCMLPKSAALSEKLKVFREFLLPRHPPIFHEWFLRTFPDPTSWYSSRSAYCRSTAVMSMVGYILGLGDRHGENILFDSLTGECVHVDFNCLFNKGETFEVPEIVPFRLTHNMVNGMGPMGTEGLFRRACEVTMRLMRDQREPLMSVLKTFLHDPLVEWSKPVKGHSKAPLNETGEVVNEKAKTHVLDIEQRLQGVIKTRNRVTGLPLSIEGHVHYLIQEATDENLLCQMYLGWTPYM

Regarding `Cc1ccsc1-c1nnc(-c2nc(-c3ccc(S(=O)(=O)[C@@H]4CCCNC4)cc3)cnc2N)o1` [Compound I-16, (R)-3-(5-(3-methylthiophen-2-yl)-1,3,4-oxadiazol-2-yl)-5-(4-(piperidin-3-ylsulfonyl)phenyl)pyrazin-2-amine], the Ki in data set [1] is at most 5 nM.

Regarding `Nc1ncc(-c2ccc(S(=O)(=O)C3CCCNC3)cc2)nc1-c1nnc(-c2ccccc2)o1` (stereo not shown) [Compound I-19], in data set [1], the Ki was at most 5 nM. `Nc1ncc(-c2ccc(S(=O)(=O)C3CCCNC3)cc2)nc1-c1cc(-c2ccccc2)no1` (stereo not shown) [Compound I-1, 3-(3-phenylisoxazol-5-yl)-5-(4-(piperidin-3-ylsulfonyl)phenyl)pyrazin-2-amine]: the Ki in data set [1] was at most 5 nM. Also, in data set [2], the clearance was determined as 0.9 mL/min/kg and the Vd worked out at 0.9 L/kg. With `Cc1ccsc1-c1nnc(-c2nc(-c3ccc(S(=O)(=O)C4CCCNC4)cc3)cnc2N)o1` (stereo not shown) [Compound I-10, 3-(5-(3-methylthiophen-2-yl)-1,3,4-oxadiazol-2-yl)-5-(4-(piperidin-3-ylsulfonyl)phenyl)pyrazin-2-amine], the Ki in data set [1] is at most 5 nM. Further, the “PK properties (clearance and volume of distribution) compared with similar compounds” value in data set [2] (compared to a similar 4-piperidine compound (Compound A)) was “much lower clearance and volume of distribution”. For the same compound, in data set [2], the clearance stood at 9.3 mL/min/kg and the Vd turned out to be 3 L/kg. For the compound `Nc1ncc(-c2ccc(S(=O)(=O)C3CCCNC3)cc2)nc1-c1nnc(-c2ccc(C3COCCN3)cc2)o1` (stereo not shown) [Compound I-17, 3-(5-(4-(morpholin-3-yl)phenyl)-1,3,4-oxadiazol-2-yl)-5-(4-(piperidin-3-ylsulfonyl)phenyl)pyrazin-2-amine], in data set [1], the Ki was at most 5 nM.

For the compound `Nc1ncc(-c2ccc(S(=O)(=O)C3CCCNC3)cc2)nc1-c1cc(-c2nccs2)no1` (stereo not shown) [Compound I-9, 5-(4-(piperidin-3-ylsulfonyl)phenyl)-3-(3-(thiazol-2-yl)isoxazol-5-yl)pyrazin-2-amine], the Ki in data set [1] is at most 5 nM. As to `Nc1ncc(-c2ccc(S(=O)(=O)C3CCCNC3)cc2)nc1-c1cc(-c2ccc(OCCO)cc2)no1` (stereo not shown) [Compound I-20], in data set [1], the Ki fell in the range of 5 to 10 nM.

`Nc1ncc(-c2ccc(S(=O)(=O)C3CCCNC3)cc2)nc1-c1cc(-c2ccccc2F)no1` (stereo not shown) [Compound I-22]: in data set [1], the Ki fell in the range of 10 to 25 nM. On the same count and under the same terms, the figure for `Cc1ccsc1-c1cc(-c2nc(-c3ccc(S(=O)(=O)C4CCCNC4)cc3)cnc2N)on1` (stereo not shown) [Compound I-2, 3-(3-(3-methylthiophen-2-yl)isoxazol-5-yl)-5-(4-(piperidin-3-ylsulfonyl)phenyl)pyrazin-2-amine] is at most 5 nM. In the case of `Nc1ncc(-c2ccc(S(=O)(=O)C3CCCNC3)cc2)nc1-c1cc(-c2cccs2)no1` (stereo not shown) [Compound I-3, 5-(4-(piperidin-3-ylsulfonyl)phenyl)-3-(3-(thiophen-2-yl)isoxazol-5-yl)pyrazin-2-amine], in data set [1], the Ki is at most 5 nM. In data set [2], the clearance is 3.3 mL/min/kg and the Vd was 1 L/kg.

`Nc1ncc(-c2ccc(S(=O)(=O)C3CCCNC3)cc2)nc1-c1cc(-c2ccccc2O)no1` (stereo not shown) [Compound I-26]: the Ki in data set [1] was at most 5 nM. As to `CNCc1ccc(-c2cc(-c3nc(-c4ccc(S(=O)(=O)C5CCCNC5)cc4)cnc3N)on2)cc1` (stereo not shown) [Compound I-5, 3-(3-(4-((methylamino)methyl)phenyl)isoxazol-5-yl)-5-(4-(piperidin-3-ylsulfonyl)phenyl)pyrazin-2-amine], in data set [1], the Ki was at most 5 nM. With `Nc1ncc(-c2ccc(S(=O)(=O)C3CCCNC3)cc2)nc1-c1nnc(-c2ccccc2)s1` (stereo not shown) [Compound I-18, 3-(5-phenyl-1,3,4-thiadiazol-2-yl)-5-(4-(piperidin-3-ylsulfonyl)phenyl)pyrazin-2-amine], the Ki in data set [1] is at most 5 nM. Turning to `Cc1ccsc1-c1nnc(-c2nc(-c3ccc(S(=O)(=O)[C@H]4CCCNC4)cc3)cnc2N)o1` [Compound I-15, (S)-3-(5-(3-methylthiophen-2-yl)-1,3,4-oxadiazol-2-yl)-5-(4-(piperidin-3-ylsulfonyl)phenyl)pyrazin-2-amine], the Ki in data set [1] is at most 5 nM.

In the case of `Nc1ncc(-c2ccc(S(=O)(=O)C3CCCNC3)cc2)nc1-c1cc(-c2ccc(CO)cc2)no1` (stereo not shown) [Compound I-21], the Ki in data set [1] was 5 to 10 nM. `Nc1ncc(-c2ccc(S(=O)(=O)C3CCCNC3)cc2)nc1-c1nnc(-c2cccs2)o1` (stereo not shown) [Compound I-12, 5-(4-(piperidin-3-ylsulfonyl)phenyl)-3-(5-(thiophen-2-yl)-1,3,4-oxadiazol-2-yl)pyrazin-2-amine]: in data set [1], the Ki was at most 5 nM. Turning to `COc1ccccc1-c1nnc(-c2nc(-c3ccc(S(=O)(=O)C4CCCNC4)cc3)cnc2N)o1` (stereo not shown) [Compound I-14, 3-(5-(2-methoxyphenyl)-1,3,4-oxadiazol-2-yl)-5-(4-(piperidin-3-ylsulfonyl)phenyl)pyrazin-2-amine], the Ki in data set [1] was at most 5 nM. Further, in data set [2], the clearance stood at 16 mL/min/kg and the Vd is 2 L/kg. As to `Cc1ccccc1-c1cc(-c2nc(-c3ccc(S(=O)(=O)C4CCCNC4)cc3)cnc2N)on1` (stereo not shown) [Compound I-24], in data set [1], the Ki fell in the range of 10 to 25 nM. For `Nc1ncc(-c2ccc(S(=O)(=O)C3CCCNC3)cc2)nc1-c1cc(-c2ccsc2)no1` (stereo not shown) [Compound I-8, 5-(4-(piperidin-3-ylsulfonyl)phenyl)-3-(3-(thiophen-3-yl)isoxazol-5-yl)pyrazin-2-amine], in data set [1], the Ki is at most 5 nM. In the case of `COc1ccsc1-c1nnc(-c2nc(-c3ccc(S(=O)(=O)C4CCCNC4)cc3)cnc2N)o1` (stereo not shown) [Compound I-13, 3-(5-(3-methoxythiophen-2-yl)-1,3,4-oxadiazol-2-yl)-5-(4-(piperidin-3-ylsulfonyl)phenyl)pyrazin-2-amine], the Ki in data set [1] was at most 5 nM. Still for that read-out and setting: with `COc1ccccc1-c1cc(-c2nc(-c3ccc(S(=O)(=O)C4CCCNC4)cc3)cnc2N)on1` (stereo not shown) [Compound I-23] the figure was 5 to 10 nM. As to `Cc1ccsc1-c1nnc(-c2nc(-c3ccc(S(=O)(=O)C4CCNCC4)cc3)cnc2N)o1` [Compound A, reference compound], in data set [2], the clearance amounted to 34.3 mL/min/kg and the Vd turned out to be 12.5 L/kg. As to `Nc1ncc(-c2ccc(S(=O)(=O)C3CCCNC3)cc2)nc1-c1cc(-c2ccc(CNC3CCOCC3)cc2)no1` (stereo not shown) [Compound I-6, 5-(4-(piperidin-3-ylsulfonyl)phenyl)-3-(3-(4-(((tetrahydro-2H-pyran-4-yl)amino)methyl)phenyl)isoxazol-5-yl)pyrazin-2-amine], the Ki in data set [1] was at most 5 nM. Regarding `Nc1ncc(-c2ccc(S(=O)(=O)C3CCCNC3)cc2)nc1-c1cc(-c2ccccc2Cl)no1` (stereo not shown) [Compound I-25], the Ki in data set [1] fell in the range of 10 to 25 nM. For `Nc1ncc(-c2ccc(S(=O)(=O)C3CCCNC3)cc2)nc1-c1cc(-c2ccc(O)cc2)no1` (stereo not shown) [Compound I-4, 4-(5-(3-amino-6-(4-(piperidin-3-ylsulfonyl)phenyl)pyrazin-2-yl)isoxazol-3-yl)phenol], in data set [1], the Ki is at most 5 nM. As to `Nc1ncc(-c2ccc(S(=O)(=O)C3CCCNC3)cc2)nc1-c1nnc(-c2sccc2F)o1` (stereo not shown) [Compound I-11, 3-(5-(3-fluorothiophen-2-yl)-1,3,4-oxadiazol-2-yl)-5-(4-(piperidin-3-ylsulfonyl)phenyl)pyrazin-2-amine], the Ki in data set [1] is at most 5 nM. As for `Nc1ncc(-c2ccc(S(=O)(=O)[C@@H]3CCCNC3)cc2)nc1-c1cc(-c2ccc([C@@H]3COCCN3)cc2)no1` [Compound I-7, 3-(3-(4-((R)-morpholin-3-yl)phenyl)isoxazol-5-yl)-5-(4-((R)-piperidin-3-ylsulfonyl)phenyl)pyrazin-2-amine], in data set [1], the Ki is at most 5 nM.
